Active and inactive are the calls of the source. The calls are words filed in the database; no cut-off is given here.
Legend:
[1] = Binding affinity to 5'-CGGGGCGG-3' DNA hairpin assessed as change in fluorescence intensity at 1 uM after 45 mins by fluorescence quenching analysis relative to control
[2] = Binding affinity to 5'-CCGCCGGC-3' DNA hairpin assessed as change in fluorescence intensity at 1 uM after 45 mins by fluorescence quenching analysis relative to control
[3] = Binding affinity to 5'-GCCCCGCC-3' DNA hairpin assessed as change in fluorescence intensity at 1 uM after 45 mins by fluorescence quenching analysis relative to control
[4] = Binding affinity to 5'-GGGCCCGG-3' DNA hairpin assessed as change in fluorescence intensity at 1 uM after 45 mins by fluorescence quenching analysis relative to control
[5] = Binding affinity to 5'-GGCGGGCC-3' DNA hairpin assessed as change in fluorescence intensity at 1 uM after 45 mins by fluorescence quenching analysis relative to control
[6] = Binding affinity to 5'-CCCCCCGC-3' DNA hairpin assessed as change in fluorescence intensity at 1 uM after 45 mins by fluorescence quenching analysis relative to control
[7] = Binding affinity to 5'-CCGCGGCG-3' DNA hairpin assessed as change in fluorescence intensity at 1 uM after 45 mins by fluorescence quenching analysis relative to control
[8] = Binding affinity to 5'-GCGCGGGG-3' DNA hairpin assessed as change in fluorescence intensity at 1 uM after 45 mins by fluorescence quenching analysis relative to control
[9] = Binding affinity to 5'-GCGGGGGG-3' DNA hairpin assessed as change in fluorescence intensity at 1 uM after 45 mins by fluorescence quenching analysis relative to control
[10] = Binding affinity to 5'-GGCGGCGC-3' DNA hairpin assessed as change in fluorescence intensity at 1 uM after 45 mins by fluorescence quenching analysis relative to control
[11] = Binding affinity to 5'-GCGGCGCG-3' DNA hairpin assessed as change in fluorescence intensity at 1 uM after 45 mins by fluorescence quenching analysis relative to control
[12] = Binding affinity to 5'-CCCGGCGC-3' DNA hairpin assessed as change in fluorescence intensity at 1 uM after 45 mins by fluorescence quenching analysis relative to control
[13] = Binding affinity to 5'-GGGCGGGG-3' DNA hairpin assessed as change in fluorescence intensity at 1 uM after 45 mins by fluorescence quenching analysis relative to control
[14] = Binding affinity to 5'-GGCGCCGG-3' DNA hairpin assessed as change in fluorescence intensity at 1 uM after 45 mins by fluorescence quenching analysis relative to control
[15] = Binding affinity to 5'-CCCCGCCG-3' DNA hairpin assessed as change in fluorescence intensity at 1 uM after 45 mins by fluorescence quenching analysis relative to control
[16] = Binding affinity to 5'-CGCGGCGC-3' DNA hairpin assessed as change in fluorescence intensity at 1 uM after 45 mins by fluorescence quenching analysis relative to control
[17] = Binding affinity to 5'-GCCGCCCG-3' DNA hairpin assessed as change in fluorescence intensity at 1 uM after 45 mins by fluorescence quenching analysis relative to control
[18] = Binding affinity to 5'-CCGGCCGC-3' DNA hairpin assessed as change in fluorescence intensity at 1 uM after 45 mins by fluorescence quenching analysis relative to control
[19] = Binding affinity to 5'-CCCCCCGG-3' DNA hairpin assessed as change in fluorescence intensity at 1 uM after 45 mins by fluorescence quenching analysis relative to control
[20] = Binding affinity to d(G4C4)2 DNA major groove assessed as stabilization of A-from DNA conformation by measuring induction of sharper band at 265 nanometer at drug:DNA molar ratio of 1:1 after 30 mins by CD spectroscopic method
[21] = Binding affinity to 5'-CGGGCGCG-3' DNA hairpin assessed as change in fluorescence intensity at 1 uM after 45 mins by fluorescence quenching analysis relative to control
[22] = Binding affinity to 5'-CCGCGCGC-3' DNA hairpin assessed as change in fluorescence intensity at 1 uM after 45 mins by fluorescence quenching analysis relative to control
[23] = Binding affinity to 5'-CGCGGGGG-3' DNA hairpin assessed as change in fluorescence intensity at 1 uM after 45 mins by fluorescence quenching analysis relative to control
[24] = Binding affinity to 5'-GGCCCGGG-3' DNA hairpin assessed as change in fluorescence intensity at 1 uM after 45 mins by fluorescence quenching analysis relative to control
[25] = Binding affinity to 5'-CGGCCGGG-3' DNA hairpin assessed as change in fluorescence intensity at 1 uM after 45 mins by fluorescence quenching analysis relative to control
[26] = Binding affinity to 5'-GCGCCGGC-3' DNA hairpin assessed as change in fluorescence intensity at 1 uM after 45 mins by fluorescence quenching analysis relative to control
[27] = Binding affinity to 5'-CGGGCGCC-3' DNA hairpin assessed as change in fluorescence intensity at 1 uM after 45 mins by fluorescence quenching analysis relative to control
[28] = Binding affinity to 5'-GGCGCCCC-3' DNA hairpin assessed as change in fluorescence intensity at 1 uM after 45 mins by fluorescence quenching analysis relative to control
[29] = Binding affinity to d(G4C4)2 DNA major groove assessed as change in electrostatic potential at 10 uM at pH 4.65 to 9.78 by UV-Visible spectrophotometric method
[30] = Binding affinity to 5'-CGGGCGGG-3' DNA hairpin assessed as change in fluorescence intensity at 1 uM after 45 mins by fluorescence quenching analysis relative to control
[31] = Binding affinity to 5'-CGGGGGCG-3' DNA hairpin assessed as change in fluorescence intensity at 1 uM after 45 mins by fluorescence quenching analysis relative to control
[32] = Binding affinity to 5'-GGCGCGCG-3' DNA hairpin assessed as change in fluorescence intensity at 1 uM after 45 mins by fluorescence quenching analysis relative to control
[33] = Binding affinity to 5'-CGCGGGCG-3' DNA hairpin assessed as change in fluorescence intensity at 1 uM after 45 mins by fluorescence quenching analysis relative to control
[34] = Binding affinity to 5'-GCCGGGGG-3' DNA hairpin assessed as change in fluorescence intensity at 1 uM after 45 mins by fluorescence quenching analysis relative to control
[35] = Binding affinity to 5'-CCCGCGGG-3' DNA hairpin assessed as change in fluorescence intensity at 1 uM after 45 mins by fluorescence quenching analysis relative to control
[36] = Binding affinity to 5'-GCGGGCGG-3' DNA hairpin assessed as change in fluorescence intensity at 1 uM after 45 mins by fluorescence quenching analysis relative to control

`NCC1O[C@H](O[C@H]2[C@@H](O)[C@H](O[C@@H]3[C@@H](O)[C@H](N)C[C@H](N)[C@H]3O[C@H]3O[C@H](CN)[C@@H](O)[C@H](O)[C@H]3N)O[C@@H]2CSCCNC(=O)CCSCC(=O)Nc2ccc(-c3c4ccc(=O)cc-4oc4cc(O)ccc34)c(C(=O)O)c2)[C@H](N)[C@@H](O)[C@@H]1O` (stereo partly specified) gave an Activity [1] of 45.5%, an Activity [2] of 52.6% and an Activity [3] of 40.2%. It also gave an Activity [4] of 25.4%, an Activity [5] of 53.2% and an Activity [6] of 30.2%. The Activity [7] was 50.1%, the Activity [8] was 43.1% and the Activity [9] was 38.1%. The Activity [10] was 50.6%, the Activity [11] was 45.8% and the Activity [12] was 44.8%. The Activity [13] was 45.3%, the Activity [14] was 53.2% and the Activity [15] was 41.4%. It also gave an Activity [16] of 52.5%, an Activity [17] of 45.8% and an Activity [18] of 57.7%. For the same compound, the Activity [19] was 30.9%, the Activity [20] was “Active” and the Activity [21] was 48.7%. The Activity [22] was 57.5%, the Activity [23] was 40.6% and the Activity [24] was 26.7%. It also gave an Activity [25] of 41.4%, an Activity [26] of 55.1% and an Activity [27] of 52.5%. The Activity [28] was 37.8%, the Activity [29] was -1.01 kT/e and the Activity [30] was 50.6%. The Activity [31] was 41.1%, the Activity [32] was 57.1% and the Activity [33] was 47.5%. For the same compound, the Activity [34] was 42.5%, the Activity [35] was 40.3% and the Activity [36] was 45%.

— ChEMBL document CHEMBL4000244, “Probing A-form DNA: A fluorescent aminosugar probe and dual recognition by anthraquinone-neomycin conjugates” (Bioorg Med Chem, 2017)
